From patent publication US20020076401A1, “Heat shock protein inducing factor and method for its in-situ generation from an inactive form” (priority 2000, published 2002)
Where a SMILES comes first, the peptide text is derived from it. The star is where a group is joined. Cbz = O=C(OCc1ccccc1)*

Legend:
[1] = tested on: HSP-inducing factor in serum; assay: In-vivo activation of HSP-inducing factor by single injection of periodate; set-up: species or system mice
Procedure: (§1) Aliquots of serum, treated as described above, were added to cultures of CH1 cells and cultures of primary human fibroblasts at 20% of final volume. Cultures were incubated for 16 hours at regular tissue culture conditions (37° C., 5% CO2). Following the incubation, cells were collected, washed, and lysed. Lysates were subjected to polyacrylamide gel electrophoresis (PAGE), transferred to nitrocellulose membrane (Awestem transfer≅), and Hsp70 was detected by immunoblotting with Hsp70-specific monoclonal antibody (Spa810) and visualized by ECL technique.
Mice were injected with either intraperitoneally (IP) or subcutaneously (SQ) with 0.2 ml of sodium periodate solution in physiological saline, or with 0.2 ml of physiological saline alone.
Four different concentrations of sodium periodate were used: 15 mM, 30 mM, 60 mM, and 120 mM. In parallel experiments the same concentrations of periodate but prequenched with potassium borohydride as described above were injected. After 2 hours blood samples were collected from tail and serum was used in the assay described above.

[2] = tested on: HSP-inducing factor in blood serum and ascites fluid; assay: In-vitro activation of HSP-inducing factor by sodium periodate; format: cell-based, mouse
Procedure: To activate HSP-inducing factor, 200 mM solution of sodium periodate in physicological saline (solutions of sodium periodate in water or in 50 mM sodium acetate pH 5.0 work equally well) was added to aliquots of serum or of ascites fluid to final concentration of 1 mM to 20 mM (at these concentrations and in conditions outlined below, sodium periodate oxidizes only sugar groups). Mixtures were incubated at room temperature in darkness for 1 hour. Following the incubation sodium periodate was quenched by the addition of solution of potassium borohydride in physiological saline to a final concentration equal to 1.5 times excess of the concentration of sodium periodate. The completeness of quenching was verified by using potassium iodide-starch test paper.
as §1

[3] = tested on: Hsp70-inducing activity in serum; assay: Periodate treatment of serum from differently stressed mice; format: cell-based; conditions: in vitro periodate treatment
[4] = tested on: HSP-inducing factor in serum; assay: In-vivo activation of HSP-inducing factor by prolonged release of periodate; set-up: species or system mouse; conditions: 500 mM released over 72 hours, SQ pump; detected after 3 hours and maintained
Procedure: In another type of experiment […] of either 500 mM solution of sodium periodate in physiological saline or physiological saline alone were released over a period of 72 hours using microosmotic pumps implanted SQ. In parallel experiments the same concentration of periodate but prequenched with potassium borohydride as described above was administered. After different time periods blood samples were collected from tail and serum was used in the assay described above.

[5] = tested on: Hsp72 expression in old cells; conditions: cited from earlier work

SMILES | levels of HSP in cell lysates relative to cells incubated with untreated serum ([1]; maximal sodium periodate concentration, single injection) | levels of HSP-inducing factor in serum ([1]; mice, IP or SQ 0.2 ml of 15-120 mM, 2 hours) | levels of HSP-inducing factor versus periodate concentration ([1]; mice, single injection) | levels of active factor versus periodate concentration ([2]; assessed by Hsp70 in cell lysates) | activation of HSP-inducing factor ([2]; blood serum and ascites fluid, 1 mM to 20 mM, 1 hour, room temperature) | Hsp70 in cell lysate relative to cells incubated with untreated serum ([2]; maximal sodium periodate concentration, serum at 20%, 16 hours) | Hsp70-inducing activity of serum from differently stressed mice after periodate treatment [3] | levels of HSP-inducing factor in serum [4] | toxicity [5] | Hsp72 synthesis ([5]; old cells)
[O-][I+3]([O-])([O-])O [sodium periodate] | about 10 times | substantially increased levels of HSP-inducing factor | directly proportional to the concentrations of periodate used | directly proportional to concentrations of sodium periodate used | strongly activated | at least 50 times | further increased in all samples to a level identical to that seen in periodate-activated serum from non-stressed mice | Substantially increased levels of HSP-inducing factor |  | 
CC(C)C[C@@H](C=O)NC(=O)[C@H](CC(C)C)NC(=O)[C@H](CC(C)C)NC(=O)OCc1ccccc1 [MG132] (Cbz-Leu-Leu-Leu-aldehyde) |  |  |  |  |  |  |  |  | highly toxic | induces Hsp72 synthesis via an alternative heat shock transcription factor HSF2
